According to ChEMBL document CHEMBL1201862, “PubChem BioAssay data set” (2004):
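In this assay, cells in 96-well plates receive the compound at five concentrations for 48 hours. Endpoints are linearly interpolated between the surrounding concentrations. Here, GI50 denotes the concentration required for 50% inhibition of growth.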 Activity calls are given as the source filed them. Cut-off read from the data, not from the text of the source: active = GI50 up to about 1.1 µM and inactive = higher.

What was measured:
Assay in all cases: inhibition of tumour cell growth, NCI panel, 48 h
K562 = test system: K562
CCRF-CEM = test system: CCRF-CEM
SR = test system: SR
HOP-62 = test system: HOP-62
LOX IMVI = test system: LOX IMVI
KM12 = test system: KM12
IGROV-1 = test system: IGROV-1
MOLT-4 = test system: MOLT-4
SNB-75 = test system: SNB-75
A549 = test system: A549
M14 = test system: M14
A498 = test system: A498
NCI-H522 = test system: NCI-H522
OVCAR-3 = test system: OVCAR-3
SF-295 = test system: SF-295
HCT-15 = test system: HCT-15
MCF7 = test system: MCF7
HCT-116 = test system: HCT-116
MDA-MB-231 = test system: MDA-MB-231
PC-3 = test system: PC-3

SMILES	GI50 (K562)	GI50 (CCRF-CEM)	GI50 (SR)	GI50 (HOP-62)	GI50 (LOX IMVI)	GI50 (KM12)	GI50 (IGROV-1)	GI50 (MOLT-4)	GI50 (SNB-75)	GI50 (A549)	GI50 (M14)	GI50 (A498)	GI50 (NCI-H522)	GI50 (OVCAR-3)	GI50 (SF-295)	GI50 (HCT-15) [µM]	GI50 (MCF7)	GI50 (HCT-116)	GI50 (MDA-MB-231)	GI50 (PC-3)
COc1cc(C2c3cc4c(cc3OC(C)(N3CCCC3)C2C)OCO4)cc(OC)c1OC (stereo not given)	0.197 µM (active)	267 nM (active)	0.0931 µM (active)	0.301 µM (active)	0.452 µM (active)	0.286 µM (active)	0.435 µM (active)	0.3 µM (active)	0.269 µM (active)	0.515 µM (active)	0.242 µM (active)	0.302 µM (active)	209 nM (active)	0.203 µM (active)	0.223 µM (active)	0.472	0.457 µM (active)	0.433 µM (active)	0.551 µM (active)	0.34 µM (active)
CCOC(=O)/C(=C\c1ccccc1)C(=O)CCN1CCOCC1	1.57 µM (inactive)	1290 nM (inactive)	2.1 µM (inactive)	21 µM (inactive)	2.8 µM (inactive)	7.94 µM (inactive)	15.2 µM (inactive)	1.99 µM (inactive)	16.4 µM (inactive)	22.4 µM (inactive)	6.67 µM (inactive)	16.7 µM (inactive)	1670 nM (inactive)	7.41 µM (inactive)	19.2 µM (inactive)	3.2	5.2 µM (inactive)	8.97 µM (inactive)	13.5 µM (inactive)	12.2 µM (inactive)
CCOC(=O)CC/C(=N/Nc1ccc(Cl)cc1[N+](=O)[O-])C(=O)OCC	> 100 µM (inactive)	> 100000 nM (inactive)	45.7 µM (inactive)	> 100 µM (inactive)	> 100 µM (inactive)	> 100 µM (inactive)	> 100 µM (inactive)	> 100 µM (inactive)	61.8 µM (inactive)	> 100 µM (inactive)	> 100 µM (inactive)	34.8 µM (inactive)	> 100000 nM (inactive)	> 100 µM (inactive)	> 100 µM (inactive)	> 100	> 100 µM (inactive)	> 100 µM (inactive)	> 100 µM (inactive)	> 100 µM (inactive)
O=C(O)c1ccc(Nc2nc3cc(C(F)(F)F)ccc3n3cccc23)cc1	15.3 µM (inactive)	16500 nM (inactive)	14.3 µM (inactive)	41 µM (inactive)	10.2 µM (inactive)	19.8 µM (inactive)	29.5 µM (inactive)	25.1 µM (inactive)	24.1 µM (inactive)	30.5 µM (inactive)	25.1 µM (inactive)	42 µM (inactive)	23400 nM (inactive)	30.2 µM (inactive)	27.2 µM (inactive)	23.3	35.6 µM (inactive)	23.1 µM (inactive)	19.7 µM (inactive)	25.5 µM (inactive)
COc1ccc(CC2NC(=O)/C=C/CC(C(C)C3OC3c3ccccc3)OC(=O)C(CC(C)C)OC(=O)C(C)CNC2=O)cc1Cl (stereo not given)	< 1e-05 µM (active)	< 0.01 nM (active)	< 1e-05 µM (active)	1.76e-05 µM (active)	< 1e-05 µM (active)	< 1e-05 µM (active)	2.36e-05 µM (active)	3.4e-05 µM (active)	2.83e-05 µM (active)	< 1e-05 µM (active)	1.04e-05 µM (active)	< 1e-05 µM (active)	< 0.01 nM (active)	< 1e-05 µM (active)	1.34e-05 µM (active)	1.06e-05	1.34e-05 µM (active)	< 1e-05 µM (active)	1.47e-05 µM (active)	1.04e-05 µM (active)
CCOP(=O)(OCC)c1c(C(=O)OC)cc(=O)[nH]c1-c1ccc(C)cc1	10.4 µM (inactive)	2020 nM (inactive)	3.03 µM (inactive)	18.5 µM (inactive)	17.7 µM (inactive)	16 µM (inactive)	6.43 µM (inactive)	4.57 µM (inactive)	12.8 µM (inactive)	15.2 µM (inactive)	11.6 µM (inactive)	22 µM (inactive)	968 nM (active)	11.1 µM (inactive)	19.8 µM (inactive)	9.73	13.4 µM (inactive)	13.8 µM (inactive)	25.1 µM (inactive)	16.7 µM (inactive)
CC/C(N)=N\NC(=O)OC(C)(C)C	> 100 µM (inactive)	> 100000 nM (inactive)	> 100 µM (inactive)	> 100 µM (inactive)	> 100 µM (inactive)	> 100 µM (inactive)	> 100 µM (inactive)	> 100 µM (inactive)	> 100 µM (inactive)	> 100 µM (inactive)	> 100 µM (inactive)	> 100 µM (inactive)	> 100000 nM (inactive)	> 100 µM (inactive)	> 100 µM (inactive)	> 100	> 100 µM (inactive)	> 100 µM (inactive)	> 100 µM (inactive)	> 100 µM (inactive)
